Source: US7732473B2, “Compounds with nootropic action, their preparation, pharmaceutical compositions containing them, and use thereof” (Neurotune AG, priority 2006, dated 2010)

Columns and labels:
[1] = system: rat model of mononeuropathy dx; assay: Paw-pressure test in rat chronic constriction injury model of mononeuropathy, injured paw (dx); format: in vivo; conditions: i.c.v., dose per compound (3-300 μg); paw-pressure test 14 days after operation
Text: Pharmacological Methods Chronic Constriction Injury Model
A peripheral mononeuropathy was produced in adult rats by placing loosely constrictive ligatures around the common sciatic nerve according to the method described by Bennett & Xie (Pain […], 33, 87-107).
Rats were anesthetized with chloral hydrate. The common sciatic nerve was exposed at the level of the middle of the thigh by blunt dissection through biceps femoris. Proximal to sciatica's trifurcation, about 1 cm of the nerve was freed of adhering tissue and four ligatures (3/0 silk tread) were tied loosely around it with about 1 mm spacing. The length of the nerve thus affected was […]. Great care was taken to tie the ligatures such that the diameter of the nerve was seen to be just barely constricted when viewed with 40× magnification. The left paw was untouched.
The nociceptive threshold in the rat was determined with an analgesimeter (Ugo Basile, Varese, Italy), according to the method described by Leighton et al. (Br. J. Pharmacol. 1988, 93, 553-560). Rats scoring below 40 g or over 75 g during the test before drug administration (25%) were rejected. An arbitrary cut-off value of 250 g was adopted.

With `N#Cc1ccc(N2C(=O)CN3C(=O)CCC32)cc1` (stereo not drawn) the melting point was 175 to 176 °C.
In the case of `O=C1CN2C(=O)CCC2N1` (stereo not drawn) [DIMIRACETAM, 2,5-dioxohexahydro-1H-pyrrolo[1,2-a]imidazole, reference compound], the “antihyperalgic effect compared with saline or vehicle treated group” value [1] is reported as “showed an antihyperalgic effect”.
For `O=C1CCC2N1CC(=O)N2c1ccccc1` (stereo not drawn) [Example 1, 1-Phenyl-tetrahydro-1H-pyrrolo[1,2-a]imidazole-2,5-dione], the “antihyperalgic effect compared with saline or vehicle treated group” value [1] was “showed an antihyperalgic effect” and the melting point was 185 to 188 °C.
With `Cc1ccccc1N1C(=O)CN2C(=O)CCC21` (stereo not drawn) [Example 2, 1-o-tolyl-tetrahydro-1H-pyrrolo[1,2-a]imidazole-2,5-dione] the “antihyperalgic effect compared with saline or vehicle treated group” value [1] was “showed an antihyperalgic effect” and the melting point was 138 to 139 °C.
In the case of `O=C1CCC2N1CC(=O)N2c1cccs1` (stereo not drawn) [Example 4, 1-Thiophen-2-yl-tetrahydro-pyrrolo[1,2-a]imidazole-2,5-dione], the melting point is reported as 170 to 171 °C.
For `Cc1cccc(N2C(=O)CN3C(=O)CCC32)c1` (stereo not drawn) [Example 5, 1-m-Tolyl-tetrahydro-pyrrolo[1,2-a]imidazole-2,5-dione], the “antihyperalgic effect compared with saline or vehicle treated group” value [1] was “showed an antihyperalgic effect” and the melting point was 92 to 93 °C.
In the case of `Cc1ccc(N2C(=O)CN3C(=O)CCC32)cc1` (stereo not drawn) [Example 6, 1-p-Tolyl-tetrahydro-pyrrolo[1,2-a]imidazole-2,5-dione], the “antihyperalgic effect compared with saline or vehicle treated group” value [1] is reported as “showed an antihyperalgic effect”.
`Cc1ccc(F)cc1N1C(=O)CN2C(=O)CCC21` (stereo not drawn) [Example 7, 1-(5-Fluoro-2-methyl-phenyl)-tetrahydro-pyrrolo[1,2-a]imidazole-2,5-dione] showed a melting point of 147 to 148 °C.
For `Cc1c(F)cccc1N1C(=O)CN2C(=O)CCC21` (stereo not drawn) [Example 8], the melting point was 135 to 137 °C.
Work on `Cc1cc(Cl)ccc1N1C(=O)CN2C(=O)CCC21` (stereo not drawn) [Example 10, 1-(4-Chloro-2-methyl-phenyl)-tetrahydro-pyrrolo[1,2-a]imidazole-2,5-dione] yielded a melting point of 122 to 124 °C.
Work on `O=C1CCC2N1CC(=O)N2c1cccc(Cl)c1` (stereo not drawn) [Example 11, 1-(3-Chloro-phenyl)-tetrahydro-pyrrolo [1,2-a]imidazole-2,5-dione] yielded a melting point of 123 to 125 °C.
Work on `COc1cccc(N2C(=O)CN3C(=O)CCC32)c1` (stereo not drawn) [Example 12, 1-(3-Methoxy-phenyl)-tetrahydro-pyrrolo [1,2-a]imidazole-2,5-dione] yielded a melting point of 94 to 95 °C.
With `N#Cc1cccc(N2C(=O)CN3C(=O)CCC32)c1` (stereo not drawn) [Example 13, 1-(3-Cyano-phenyl)-tetrahydro-pyrrolo [1,2-a]imidazole-2,5-dione] the “antihyperalgic effect compared with saline or vehicle treated group” value [1] was “showed an antihyperalgic effect” and the melting point was 128 to 130 °C.
`O=C1CCC2N1CC(=O)N2c1ccc(Cl)cc1` (stereo not drawn) [Example 14, 1-(4-Chloro-phenyl)-tetrahydro-pyrrolo [1,2-a]imidazole-2,5-dione] showed a melting point of 159 to 160 °C.
With `O=C1CCC2N1CC(=O)N2c1cccc(O)c1` (stereo not drawn) [Example 15, 1-(3-Hydroxy-phenyl)-tetrahydro-pyrrolo [1,2-a]imidazole-2,5-dione] the melting point was 210 to 211 °C.
Molecule `COc1ccc(N2C(=O)CN3C(=O)CCC32)cc1` (stereo not drawn) [Example 18, 1-(4-Methoxy-phenyl)-tetrahydro-pyrrolo[1,2-a]imidazole-2,5-dione] has a melting point of 210 to 211 °C.
`Cc1cc(C)cc(N2C(=O)CN3C(=O)CCC32)c1` (stereo not drawn) [Example 19, 1-(3,5-Dimethyl-phenyl)-tetrahydro-pyrrolo [1,2-a]imidazole-2,5-dione] gave a melting point of 103 to 104 °C.
With `Cc1ccc(N2C(=O)CN3C(=O)CCC32)cc1C` (stereo not drawn) [Example 20, 1-(3,4-Dimethyl-phenyl)-tetrahydro-pyrrolo [1,2-a]imidazole-2,5-dione] the melting point was 142 to 143 °C.
Work on `O=C1CCC2N1CC(=O)N2c1ccc2ccccc2c1` (stereo not drawn) [Example 21, 1-Naphthalen-2-yl-tetrahydro-pyrrolo [1,2-a]imidazole-2,5-dione] yielded a melting point of 175 to 176 °C.
With `CC(C)c1cccc(N2C(=O)CN3C(=O)CCC32)c1` (stereo not drawn) [Example 22, 1-(3-Isopropyl-phenyl)-tetrahydro-pyrrolo [1,2-a]imidazole-2,5-dione] the “antihyperalgic effect compared with saline or vehicle treated group” value [1] was “showed an antihyperalgic effect” and the melting point was 81 to 82 °C.
In the case of `Cc1cc(N2C(=O)CN3C(=O)CCC32)ccc1Cl` (stereo not drawn) [Example 23, 1-(4-Chloro-3-methyl-phenyl)-tetrahydro-pyrrolo[1,2-a]imidazole-2,5-dione], the melting point is reported as 138 to 139 °C.
Work on `O=C1C(Cc2ccccc2)N2C(=O)CCC2N1c1ccccc1` (stereo not drawn) [Example 24, 3-Benzyl-1-phenyl-tetrahydro-pyrrolo [1,2-a]imidazole-2,5,-dione] yielded a melting point of 134 to 136 °C.
Work on `CC1C(=O)N(c2ccccc2)C2CCC(=O)N12` (stereo not drawn) [Example 25, 3-Methyl-1-phenyl-tetrahydro-pyrrolo [1,2-a]imidazole-2,5,-dione] yielded a melting point of 137 to 138 °C.
`CC(C)CC1C(=O)N(c2ccccc2)C2CCC(=O)N12` (stereo not drawn) [Example 26, 3-Isobutyl-1-phenyl-tetrahydro-pyrrolo [1,2-a]imidazole-2,5,-dione] gave a melting point of 101 to 102 °C.
Work on `Cc1cc(F)cc(N2C(=O)CN3C(=O)CCC32)c1` (stereo not drawn) [Example 27, 1-(3-Fluoro-5-methyl-phenyl)-tetrahydro-pyrrolo[1,2-a]imidazole-2,5-dione] yielded a melting point of 111 to 113 °C.
For `Cc1ccc(N2C(=O)CN3C(=O)CCC32)cc1F` (stereo not drawn) [Example 28, 1-(3-Fluoro-4-methyl-phenyl)-tetrahydro-pyrrolo[1,2-a]imidazole-2,5-dione], the melting point was 136 to 137 °C.
`CC12CCC(=O)N1CC(=O)N2c1ccccc1` (stereo not drawn) [Example 29, 7a-Methyl-1-phenyl-tetrahydro-pyrrolo [1,2-a]imidazole-2,5-dione] showed a melting point of 154 to 155 °C.
With `CC(C)c1ccc(N2C(=O)CN3C(=O)CCC32)cc1` (stereo not drawn) [Example 33, 1-(4-Isopropyl-phenyl)-tetrahydro-pyrrolo [1,2-a]imidazole-2,5-dione] the melting point was 124 to 125 °C.
Molecule `O=C1CCC2N1CC(=O)N2c1ccc(CO)cc1` (stereo not drawn) [Example 34, 1-(4-Hydroxymethyl-phenyl)-tetrahydro-pyrrolo[1,2-a]imidazole-2,5-dione] has a melting point of 159 to 161 °C.
In the case of `O=C(O)c1ccc(N2C(=O)CN3C(=O)CCC32)cc1` (stereo not drawn) [Example 35, 4-(2,5-Dioxo-hexahydro-pyrrolo[1,2-a]imidazole-1-yl)-benzoic acid], the melting point is reported as 252 to 253 °C.
For `CCOC(=O)c1ccc(N2C(=O)CN3C(=O)CCC32)cc1` (stereo not drawn) [Example 36, 4-(2,5-Dioxo-hexahydro-pyrrolo[1,2-a]imidazole-1-yl)-benzoic acid ethyl ester], the melting point was 158 to 159 °C.
`CS(=O)(=O)c1ccc(N2C(=O)CN3C(=O)CCC32)cc1` (stereo not drawn) [Example 37, 1-(4-Methanesulfonyl-phenyl)-tetrahydro-pyrrolo[1,2-a]imidazole-2,5-dione] showed a melting point of 143 to 145 °C.
`O=C1CCC2N1CC(=O)N2c1ccc(F)cc1` (stereo not drawn) [Example 38, 1-(4-Fluoro-phenyl)-tetrahydro-pyrrolo [1,2-a]imidazole-2,5-dione] gave a melting point of 158 to 159 °C.
For `O=C1CCC2N1CC(=O)N2c1ccccn1` (stereo not drawn) [Example 40, 1-Pyridin-2-yl-tetrahydro-pyrrolo[1,2-a] imidazole-2,5-dione], the melting point was 139 to 140 °C.
Work on `O=C1CCC2N1CC(=O)N2c1cccnc1` (stereo not drawn) [Example 41, 1-Pyridin-3-yl-tetrahydro-pyrrolo[1,2-a] imidazole-2,5-dione] yielded a melting point of 180 to 182 °C.
In the case of `Cc1ccc(N2C(=O)CN3C(=O)CCC32)nc1` (stereo not drawn) [Example 42, 1-(5-Methylpyridin-2-yl)-tetrahydropyrrolo [1,2-a]imidazole-2,5-dione], the melting point is reported as 158 to 159 °C.
For `N#Cc1ccccc1N1C(=O)CN2C(=O)CCC21` (stereo not drawn) [Example 43, 1-(2-Cyano-phenyl)-tetrahydro-pyrrolo [1,2-a]imidazole-2,5-dione], the melting point was 94 to 95 °C.
`O=C1CCC2N1CC(=O)N2c1cccc(F)c1` (stereo not drawn) [Example 44, 1-(3-Fluoro-phenyl)-tetrahydro-pyrrolo [1,2-a]imidazole-2,5-dione] gave a melting point of 145 to 149 °C.
For `NCC1(CC(=O)O)CCCCC1` [GABAPENTIN, reference compound], the “antihyperalgic effect compared with saline or vehicle treated group” value [1] was “showed an antihyperalgic effect”.
For `CC[C@@H](C(N)=O)N1CCCC1=O` [LEVETIRACETAM, 2-(2-oxopyrrolidin-1-yl) butyramide, reference compound], the “antihyperalgic effect compared with saline or vehicle treated group” value [1] was “showed an antihyperalgic effect”.
